According to ChEMBL document CHEMBL6114998, “Design, Synthesis, and Pharmacological Evaluation of Quinazoline and Quinoline Derivatives as Potent ENPP1 Inhibitors for Cancer Immunotherapy” (J Med Chem, 2025):
The source made the active and inactive calls. The calls are words filed in the database; no cut-off is given here.

Key:
[1] = molecular target: T1, Ectonucleotide pyrophosphatase/phosphodiesterase family member 1 (Homo sapiens, UniProt P22413); test: Inhibition of recombinant human ENPP1 transfected in HEK293T cells using cGAMP as substrate at pH 7.5 measured after 3.5 hrs by luminescence based AMP-glo assay; format: cell-based
T1 sequence (P22413 whole entry): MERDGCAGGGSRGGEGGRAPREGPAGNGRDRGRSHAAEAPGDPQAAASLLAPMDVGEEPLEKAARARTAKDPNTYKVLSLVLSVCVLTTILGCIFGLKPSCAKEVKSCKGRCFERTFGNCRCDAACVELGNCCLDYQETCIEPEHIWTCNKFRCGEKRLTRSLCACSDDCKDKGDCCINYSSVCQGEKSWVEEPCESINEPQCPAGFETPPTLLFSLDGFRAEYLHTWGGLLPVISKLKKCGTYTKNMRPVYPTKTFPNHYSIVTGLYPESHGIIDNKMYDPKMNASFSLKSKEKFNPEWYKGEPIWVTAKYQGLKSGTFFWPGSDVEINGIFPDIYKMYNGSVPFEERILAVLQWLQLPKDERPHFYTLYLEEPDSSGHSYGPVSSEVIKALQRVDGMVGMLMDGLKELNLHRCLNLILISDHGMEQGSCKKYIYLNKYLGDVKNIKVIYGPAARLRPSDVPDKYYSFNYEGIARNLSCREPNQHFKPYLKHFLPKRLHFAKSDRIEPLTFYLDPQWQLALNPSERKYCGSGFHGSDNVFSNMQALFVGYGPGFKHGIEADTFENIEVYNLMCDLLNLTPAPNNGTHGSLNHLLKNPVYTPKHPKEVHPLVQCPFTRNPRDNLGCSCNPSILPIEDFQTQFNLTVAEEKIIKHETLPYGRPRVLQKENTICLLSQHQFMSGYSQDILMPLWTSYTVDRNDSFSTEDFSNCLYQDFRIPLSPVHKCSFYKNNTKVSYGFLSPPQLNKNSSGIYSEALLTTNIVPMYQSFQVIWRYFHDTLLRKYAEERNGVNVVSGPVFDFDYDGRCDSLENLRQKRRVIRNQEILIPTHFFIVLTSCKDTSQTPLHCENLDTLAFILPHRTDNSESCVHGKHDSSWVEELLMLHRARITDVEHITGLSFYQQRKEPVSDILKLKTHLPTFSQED

[2] = molecular target: T1, Ectonucleotide pyrophosphatase/phosphodiesterase family member 1; test: Inhibition of ENPP1 in human MDA-MB-231 cells using p-NPh-5TMP as substrate at pH 9.5 measured after 60 mins; format: cell-based
THP-1 = test: Activation of STING signalling pathway in human THP-1 cells assessed as increase in IFNB1 expression at 10 to 1000 nM measured after 18 hrs in presence of cGAMP by qPCR analysis; format: cell-based; details: filed as activator, dose 10-1000 nM
[3] = Cmax in Sprague-Dawley rat at 10 mg/kg, iv measured upto 24 hrs by LC-MS/MS analysis; format: ADME, organism-based; details: in vivo
[4] = molecular target: T1, Ectonucleotide pyrophosphatase/phosphodiesterase family member 1; test: Inhibition of ENPP1 in human MDA-MB-231 cells using p-NPh-5TMP as substrate at pH 8.5 measured after 60 mins; format: cell-based
[5] = Half life in Sprague-Dawley rat at 10 mg/kg, iv measured upto 24 hrs by LC-MS/MS analysis; format: ADME, organism-based; details: in vivo
[6] = AUC(0 to t) in Sprague-Dawley rat at 10 mg/kg, iv measured upto 24 hrs by LC-MS/MS analysis; format: ADME, organism-based; details: in vivo
[7] = Clearance in Sprague-Dawley rat at 10 mg/kg, iv measured upto 24 hrs by LC-MS/MS analysis; format: ADME, organism-based; details: in vivo
[8] = MRT (0 to t) in Sprague-Dawley rat at 10 mg/kg, iv measured upto 24 hrs by LC-MS/MS analysis; format: ADME, organism-based; details: in vivo
[9] = Apparent permeability across apical to basal side in human Caco-2 cells at 10 uM by LC-MS/MS analysis; format: ADME, cell-based
[10] = Apparent permeability across basal to apical side in human Caco-2 cells at 10 uM by LC-MS/MS analysis; format: ADME, cell-based
[11] = Efflux ratio of apparent permeability from basolateral to apical side over apical to basolateral side in human Caco-2 cells at 10 uM by LC-MS/MS analysis; format: ADME, cell-based
CT26 = test: Antitumor activity against mouse CT26 cells allografted in female BALB/c mouse assessed as tumor growth inhibition at 200 mg/kg QD, po measured every 2 days for 12 days relative to control; format: functional; details: CT26, 288 h, time 12 day, read-out: TGI
[12] = Toxicity in female BALB/c mouse allografted with mouse CT26 cells assessed as change in body weight at 200 mg/kg QD, po measured every 2 days for 12 days; format: organism-based; details: in vivo, 288 h, time 12 day
THP1-Dual [13] = test: Activation of STING-mediated immune response in human THP1-Dual cells assessed as increase in cGAMP-induced ISRE activation by measuring type 1 IFN response at 10 to 1000 nM preincubated in conditioned medium containing 36 hrs compound treated with human MDA-MB-231 cells measured after 24 hrs by quanti-luc luciferase assay; format: cell-based; details: filed as activator, dose 10-1000 nM, time 60.0 hrs
THP1-Dual KO-STING [14] = test: Cytotoxicity against human THP1-Dual KO-STING cells assessed as effect on cell viability at 1 uM followed by addition of conditioned medium containing 36 hrs compound pretreated human MDA-MB-231 cells measured after 24 hrs by celltiter-glo assay; format: functional, cell-based; details: time 60.0 hrs
THP1-Dual [15] = test: Cytotoxicity against human THP1-Dual cells assessed as effect on cell viability at 10 to 1000 nM pretreated with compound in serum-free medium for 36 hrs in presence of cGAMP followed by replacement with condition medium and measured after 24 hrs by celltiter-glo assay; format: functional, cell-based; details: dose 10-1000 nM, time 60.0 hrs
[16] = molecular target: Voltage-gated inwardly rectifying potassium channel KCNH2 (Homo sapiens, UniProt Q12809); test: Inhibition of hERG expressed in CHO cells by QPatch automated patch-clamp assay; format: toxicity, cell-based
THP1-Dual [17] = test: Activation of STING-mediated immune response in human THP1-Dual cells assessed as increase in cGAMP-induced ISRE activation preincubated in conditioned medium containing 36 hrs compound treated with human MDA-MB-231 cells measured after 24 hrs by quanti-luc luciferase assay; format: cell-based; details: filed as activator, time 60.0 hrs
THP1-Dual KO-STING [18] = test: Activation of STING-mediated immune response in human THP1-Dual KO-STING cells assessed as cGAMP-induced ISRE activation at 1 uM preincubated with conditioned medium containing 36 hrs compound treated with human MDA-MB-231 cells and measured after 24 hrs by quanti-luc luciferase assay; format: cell-based; details: filed as activator, time 60.0 hrs
[19] = molecular target: T1, Ectonucleotide pyrophosphatase/phosphodiesterase family member 1; test: Binding affinity to human ENPP1 assessed as inhibition constant

Chain of Voltage-gated inwardly rectifying potassium channel KCNH2 (Q12809 whole entry): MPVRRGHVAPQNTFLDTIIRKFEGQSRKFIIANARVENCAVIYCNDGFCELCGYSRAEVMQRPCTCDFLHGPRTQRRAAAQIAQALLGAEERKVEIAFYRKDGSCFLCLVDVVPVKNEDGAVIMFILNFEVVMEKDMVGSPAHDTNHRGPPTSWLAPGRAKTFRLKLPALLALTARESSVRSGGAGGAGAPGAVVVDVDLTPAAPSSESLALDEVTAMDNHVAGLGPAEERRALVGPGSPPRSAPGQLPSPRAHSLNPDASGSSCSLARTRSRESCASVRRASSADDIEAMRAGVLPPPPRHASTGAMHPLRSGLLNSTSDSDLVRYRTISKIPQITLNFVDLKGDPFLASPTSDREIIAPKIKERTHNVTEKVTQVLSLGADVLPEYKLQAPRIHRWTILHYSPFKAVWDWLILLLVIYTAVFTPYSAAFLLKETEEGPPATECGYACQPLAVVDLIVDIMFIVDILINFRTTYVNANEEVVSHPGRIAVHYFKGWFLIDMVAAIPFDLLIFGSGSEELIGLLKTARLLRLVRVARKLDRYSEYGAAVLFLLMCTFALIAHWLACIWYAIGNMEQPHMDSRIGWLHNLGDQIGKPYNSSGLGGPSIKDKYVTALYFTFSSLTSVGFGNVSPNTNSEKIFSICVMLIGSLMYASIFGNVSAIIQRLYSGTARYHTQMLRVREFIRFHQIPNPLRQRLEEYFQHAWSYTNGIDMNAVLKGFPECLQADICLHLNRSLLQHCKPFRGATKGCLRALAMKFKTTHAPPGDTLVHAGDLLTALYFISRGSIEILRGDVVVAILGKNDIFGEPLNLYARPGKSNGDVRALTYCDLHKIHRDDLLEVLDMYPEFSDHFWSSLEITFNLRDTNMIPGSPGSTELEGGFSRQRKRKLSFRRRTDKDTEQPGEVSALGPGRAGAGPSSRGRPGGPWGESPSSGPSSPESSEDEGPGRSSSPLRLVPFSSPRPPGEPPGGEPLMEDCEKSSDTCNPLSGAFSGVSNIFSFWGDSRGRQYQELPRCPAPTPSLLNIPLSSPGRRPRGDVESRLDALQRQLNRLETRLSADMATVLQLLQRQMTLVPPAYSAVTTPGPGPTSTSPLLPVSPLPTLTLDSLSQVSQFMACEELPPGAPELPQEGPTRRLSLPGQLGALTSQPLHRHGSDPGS

IC50 [1]	IC50 [2]	SMILES	further results
0.572 µM	> 1 µM	COc1cccc2c(N3CCC4(CC3)CC(NS(N)(=O)=O)CO4)c(C#N)cnc12 (stereo unspecified)	
0.156 µM	> 1 µM	COc1cccc2c(NC3CCC(NS(N)(=O)=O)CC3)ncnc12 (stereo unspecified)	
0.0537 µM	0.0166 µM	COc1cccc2c(NC3CC(NS(N)(=O)=O)C3)c(C#N)cnc12 (stereo unspecified)	
0.0116 µM	0.00184 µM	COc1cccc2c(N3CCC(O)(CNS(N)(=O)=O)CC3)c(C#N)cnc12	Activity (THP-1): Active
0.0403 µM	0.00862 µM	COc1cccc2c(NC3CCC(NS(N)(=O)=O)CC3)c(C#N)cnc12 (stereo unspecified)	
0.0149 µM	0.00506 µM	COc1cccc2c(N3CCC4(CC(NS(N)(=O)=O)C4)C3)ncnc12 (stereo unspecified)	
0.0149 µM	0.00288 µM	COc1cccc2c(N3CCC(F)(CNS(N)(=O)=O)CC3)ncnc12	
1.38 µM	0.556 µM	Cn1nc(Cc2ccc(NS(N)(=O)=O)cc2)c2ccccc2c1=O	Cmax [3]: 11.4 µg/mL; IC50 [4]: 4.56 µM; half-life [5]: 3.24 h; AUC(0-t) at 24 h [6]: 27.9 µg·h/mL; clearance [7]: 0.371 L/h/kg; MRT last at 24 h [8]: 2.92 h; Papp A→B at 10 µM [9]: 60.6 nm/s; Papp B→A at 10 µM [10]: 232 nm/s; efflux ratio at 10 µM [11]: 3.82; inhibition in vivo at 200 mg/kg (CT26): 39.4%; Activity [12]: Non-toxic; Activity (THP1-Dual [13]): Active; Activity (THP1-Dual KO-STING [14]): Active; Activity (THP1-Dual [15]): Active
0.455 µM	> 1 µM	COc1cccc2c(N3CCC4(CC3)CC(NS(N)(=O)=O)C4)ncnc12	
0.00622 µM	0.0103 µM	COc1cccc2c(NC34CC(NS(N)(=O)=O)(C3)C4)c(C#N)cnc12	
0.018 µM	0.0107 µM	COc1cccc2c(N[C@H]3CC[C@@H](NS(N)(=O)=O)CC3)c(C#N)cnc12	
0.0951 µM	> 1 µM	COc1cccc2c(NC34CC(NS(N)(=O)=O)(C3)C4)ncnc12	
0.00384 µM	0.00107 µM	COc1cccc2c(N3CCC(C)(CNS(N)(=O)=O)CC3)c(C#N)cnc12	Activity (THP-1): Active; IC50 [16]: > 40 µM
0.0102 µM	0.00441 µM	COc1cccc2c(N3CCC(C)(CNS(N)(=O)=O)CC3)ncnc12	
0.0276 µM	0.042 µM	COc1cccc2c(N[C@H]3CC[C@@H](NS(N)(=O)=O)CC3)ncnc12	
0.0953 µM	> 1 µM	COc1cccc2c(N3CCC4(CC3)CC4NS(N)(=O)=O)ncnc12 (stereo unspecified)	
0.438 µM	> 1 µM	COc1cccc2c(NC3CC(NS(N)(=O)=O)C3)ncnc12 (stereo unspecified)	
0.0277 µM	0.00678 µM	COc1cccc2c(N3CCC4(CC(NS(N)(=O)=O)C4)C3)c(C#N)cnc12 (stereo unspecified)	
0.373 µM	> 1 µM	COc1cccc2c(N3CCC4(CC3)CC(NS(N)(=O)=O)C4)c(C#N)cnc12	
> 1 µM	> 1 µM	COc1cccc2c(N[C@H]3CC[C@H](CNS(N)(=O)=O)CC3)ncnc12	
> 1 µM	> 1 µM	COc1cccc2c(N[C@H]3CC[C@H](CNS(N)(=O)=O)CC3)c(C#N)cnc12	
0.0237 µM	0.0062 µM	COc1cccc2c(N3CCC4(CC3)CC4NS(N)(=O)=O)c(C#N)cnc12 (stereo unspecified)	
0.37 µM	> 1 µM	COc1cccc2c(N[C@H]3CC[C@H](NS(N)(=O)=O)CC3)ncnc12	
0.0005 µM	0.0501 µM	COc1cccc2c(N3CCC(CCP(=O)(O)O)CC3)ncnc12	Cmax [3]: 4.8 µg/mL; Activity (THP-1): Active; IC50 [4]: 0.015 µM; half-life [5]: 0.878 h; AUC(0-t) at 24 h [6]: 1.78 µg·h/mL; clearance [7]: 5.64 L/h/kg; MRT last at 24 h [8]: 0.39 h; Papp A→B at 10 µM [9]: 1.18 nm/s; Papp B→A at 10 µM [10]: 3.94 nm/s; efflux ratio at 10 µM [11]: 3.34; Activity (THP1-Dual [17]): Dose-dependent-effect; Activity (THP1-Dual KO-STING [18]): Active; Activity (THP1-Dual KO-STING [14]): Active; Activity (THP1-Dual [15]): Active; Ki [19]: < 0.002 µM
0.305 µM	0.154 µM	COc1cccc2c(N3CCC(O)(CCNS(N)(=O)=O)CC3)ncnc12	
0.0555 µM	0.0232 µM	COc1cccc2c(N3CC4CC3CC4CNS(N)(=O)=O)c(C#N)cnc12 (stereo unspecified)	
0.00665 µM	0.00097 µM	COc1cccc2c(N3CCC(C#N)(CNS(N)(=O)=O)CC3)c(C#N)cnc12	Activity (THP-1): Active; IC50 [16]: > 40 µM
0.00328 µM	0.00123 µM	COc1cccc2c(N3CCC(F)(CNS(N)(=O)=O)CC3)c(C#N)cnc12	Activity (THP-1): Active
